Assay results reported in publication PMC10693528, “A high-throughput metabolomics in vitro platform for the characterization of hepatotoxicity” (Cell Biology and Toxicology, 2023).
Values joined by “and” are separate entries in the source; they are usually repeats but may differ in a detail not shown here. Equal values may be shown once.

How the values were obtained:
HepG2 cells [1] = assay: Cell viability (ATP, CellTiter-Glo) in parallel with metabolomics experiments; conditions: Bezafibrate 1000 μM, 48 h, one value per experiment plate, n = 6
Description: (§1) HepG2 cells (ECACC, UK, maximum passage number 9) were maintained and grown on Dulbecco’s MEM media supplemented with 1% v/v of penicillin/streptomycin, L-glutamine (200 mM, 1% v/v), non-essential amino acids (100x, 1% v/v), and 10% FBS (PAN-Biotech, Aidenbach, Germany) in 75 cm^2 culture flasks (TPP, Switzerland). For cell passaging (~ 80% confluency) media was removed and cells were washed twice with pre-warmed calcium and magnesium free Dulbecco’s PBS (PAN-Biotech, Aidenbach, Germany). Trypsin was used for cell detachment. Then, 20 mL culture medium was added, and single-cell suspensions were obtained by passing the suspension through a Combitip (Eppendorf, Germany). A fraction of the cell suspension was then transferred to a new culture vessel. For experiments, 15,000 cells per well (passage 5-9) were seeded in 96-well flat-bottom plates (TPP, Switzerland) and incubated for 24 h for cell attachment (37 °C and 5% CO^2). Afterwards, culture media were exchanged, test substances applied, and plates incubated for 48 h (37 °C and 5% CO^2).
(§2) For each substance, one 96-well plate was set up with 6 replicates per concentration, 12 replicates for vehicle controls (yielding a final concentration of 0.5% DMSO in the well), 6 replicates for positive controls (Bezafibrate 1000 μM), and 6 replicates for blank controls (media without cells). To minimize potential evaporation, the outer rows and columns of the plate were omitted and filled with PBS instead. Reference samples prepared from lyophilized HepG2 cells were measured in parallel throughout the entire analytical process (technical replicates). […] Lyophilized HepG2 cells reference samples were used to account for variability between plates and in concentration series for linearity checks. After 48 h, the assays were stopped by washing the wells once with 100 μL 0.9% NaCl followed by snap freezing the plates on liquid nitrogen for 5 s. Plates were placed immediately on dry ice and 50 μL ice-cooled isopropanol 80% (v/v) were added to quench metabolism and precipitate proteins. Plates were stored at − 80 °C until LC/ MS analysis.

[2] = as above; conditions: human, HepG2 cells, Percentage of viability (ATP) compared to the vehicle control, Bezafibrate positive control, Bezafibrate 1000 μM, 48 h, one value per experiment plate, n = 6
Description: as §1, §2

HepG2 cells [3] = assay: LC-MS/MS targeted intracellular metabolomics; format: cell-based, human; conditions: Suppl Fig 9; C3 (EC15 ATP), 48 h; Bezafibrate lines = Plates 1-6 in order
Description: Metabolite profiling of cells was performed directly in the same 96-well plate according to a standardized protocol described below. In order to prevent any interaction with the cell material, the automatic sampler was adjusted to pick up the sample from the supernatant at a specified depth avoiding the contact with the bottom of the plate.
After the initial quenching step (50 μL isopropanol 80%), additional 70 μL of isopropanol 80%, containing internal standards (methionine-D3, tryptophan-D5, arginine-13C6-15N4, Boc-Ala-Gly-Gly-Gly-OH, coenzyme Q1, coenzyme Q2, coenzyme Q4) were added to each well. The internal standards were used for quality control by visual inspection (signal intensity, peak shape, retention time); they were not used for normalization. Afterwards, plates were shaken for 5 min, 750 rpm at 20 °C, and placed for 30 s in the ultrasonic device. Then, the plates were centrifugated for 10 min, at 5485 g, 15 °C. Further, 2.5 μL of the extract were injected each for reversed-phase and hydrophilic interaction liquid chromatography followed by MS/MS detection (AB Sciex QTrap 6500+) using the positive and negative ionization mode. For reverse-phase high-performance liquid chromatography (RP-HPLC, Ascentis Express C18, 5 cm × 2.1 mm, 2.7 μm Supelco), gradient elution was performed with mobile phase A, water/methanol/0.1 M ammonium formate (1:1:0.02, w/w), and B, methyl-tert-butylether/2-propanol/methanol/0.1 M ammonium formate/formic acid (4:2:1:0.07:0.035, w/w) 5.9 min linear gradient: 0 min 100% A, 0.5 min 75% A, 5.9 min 10% A; followed by 0% A until 6.7 min; re-equilibration at 100% A until 7.7 min; flow rate 600 μL/min; column temperature 40 °C HILIC (ZIC-HILIC, 2.1 × 100 mm, 3.5 μm, Supelco) gradient elution was performed with mobile phase C, acetonitrile/water (99:1, v/v) with 0.2% (v) acetic acid, and D, 7 mM ammonium acetate with 0.2% (v) acetic acid (5.0 min linear gradient: 0 min 100% C, 5 min 10% C; followed by a linear gradient back to 100%C until 6.5 min; re-equilibration at 100% C until 7.5 min; flow rate 600 μL/min; column temperature 40 °C.). Two LC-MS systems with identical configuration were used for the analysis. Normalization to lyophilized reference samples (see below) was used to compensate for variation from between analytical batches. The efficiency of this normalization procedure was checked by principal component analysis (PCA), confirming that Pool samples from different analytical batches clustered together.
Reference samples derived from lyophilized untreated HepG2 cells (technical control samples) were measured in parallel throughout the entire analytical process. Data were normalized against the median of these lyophilized HepG2 cells reference samples, to give normalized ratios (performed for each sample per metabolite). This compensated for inter- and intra-instrumental variation. To correct for small differences in cell numbers within and between different treatment groups, data were also normalized to the within sample median, as described in detail by (Ramirez et al. [2018]). For intracellular metabolomic analysis, the median of each sample was calculated across all the 221 measured metabolites.
To generate metabolic profiles for the different treatments, heteroscedastic t test (Welch test) was applied to log-transformed normalized metabolite data to compare treated groups with their respective controls.
Principal component analysis (PCA) and hierarchical clustering (HCA) analyses were performed using R software environment (https://www.r-project.org/). PCA was conducted using the ropls package (Thévenot et al. [2015]) with log10-transformed input data and standard scaling. HCA was performed using the pvclust package (Suzuki et al. [2019]), (https://CRAN.R-project.org/package=pvclust). Input: log10(Ratio), clustering method: Ward D2, distance method: Manhattan, bootstrapping: 10000 times.

CC(C)(Oc1ccc(CCNC(=O)c2ccc(Cl)cc2)cc1)C(=O)O [Bezafibrate]
Percentage of viability (ATP) compared to the vehicle control, Bezafibrate positive control (HepG2 cells [1]): 84.1 ± 2.3% and 76.3 ± 3.2% and 75.0 ± 1.5% and 71.8 ± 2.8% and 78.0 ± 0.7% and 79.3 ± 2.2% | viability at 48 h, 1000 μM [2]: 71 to 84% | 5-Hydroxytryptophan level vs controls (HepG2 cells [3]): 0.84 and 0.77 and 0.76 and 0.85 and 0.74 and 0.65 | Carnitine level vs controls (HepG2 cells [3]): 0.72 and 0.74 and 0.84 and 0.77 and 0.80 | Ceramide (d18:1.C20:0) level vs controls (HepG2 cells [3]): 0.63 and 0.66 and 0.56 and 0.62 and 0.64 and 0.59 | Ceramide (d18:1.C24:1) level vs controls (HepG2 cells [3]): 0.66 and 0.91 and 0.98 and 0.80 and 0.85 and 0.68 | Ceramide (d18:1.C24:2) level vs controls (HepG2 cells [3]): 0.83 and 1.08 and 1.11 and 0.89 and 0.90 and 0.91 | Ceramide (d18:2.C24:1) level vs controls (HepG2 cells [3]): 0.56 and 0.62 and 0.68 and 0.89 and 0.63 | Choline plasmalogen (C36:4) level vs controls (HepG2 cells [3]): 0.65 and 0.80 and 0.68 and 0.69 and 0.73 and 0.72 | Choline plasmalogen (C36:5) level vs controls (HepG2 cells [3]): 0.78 and 0.90 and 0.80 and 0.83 and 0.82 and 0.79 | Creatine level vs controls (HepG2 cells [3]): 0.80 and 0.82 and 0.73 and 0.78 and 0.67 and 0.66 | Glycerol-3-phosphate level vs controls (HepG2 cells [3]): 0.68 and 0.43 and 0.45 and 0.54 and 0.44 and 0.39 | Hexanoylcarnitine level vs controls (HepG2 cells [3]): 0.65 and 0.54 and 0.50 and 0.59 and 0.62 | Ketoleucine level vs controls (HepG2 cells [3]): 0.73 and 0.72 and 0.74 and 0.77 and 1.10 | Lysophosphatidylcholine (C14:0) level vs controls (HepG2 cells [3]): 2.27 and 1.82 and 2.09 and 1.97 and 1.85 and 1.87 | Lysophosphatidylcholine (C16:0) level vs controls (HepG2 cells [3]): 1.86 and 1.92 and 1.98 and 2.08 and 1.93 and 2.14 | Lysophosphatidylcholine (C16:1) level vs controls (HepG2 cells [3]): 1.95 and 2.13 and 2.01 and 2.17 and 1.86 and 1.72 | Lysophosphatidylcholine (C20:4) level vs controls (HepG2 cells [3]): 1.22 and 1.67 and 1.47 and 1.90 and 1.86 and 1.44 | Lysophosphatidylcholine (C24:0) level vs controls (HepG2 cells [3]): 1.01 and 1.18 and 1.11 and 1.20 and 1.21 and 1.29 | Lysophosphatidylcholine (C24:1) level vs controls (HepG2 cells [3]): 1.10 and 1.03 and 1.13 and 1.26 and 1.12 | Lysophosphatidylethanolamine (C16:0) level vs controls (HepG2 cells [3]): 2.47 and 2.37 and 2.23 and 2.12 and 2.10 and 2.19 | Lysophosphatidylethanolamine (C18:0) level vs controls (HepG2 cells [3]): 2.21 and 2.07 and 1.76 and 1.77 and 2.04 | Lysophosphatidylethanolamine (C18:1) level vs controls (HepG2 cells [3]): 2.45 and 2.31 and 1.97 and 2.19 and 2.11 and 2.16 | N-Acetylaspartate level vs controls (HepG2 cells [3]): 1.54 and 1.49 and 1.66 and 1.48 and 1.41 and 1.25 | Pantothenic acid level vs controls (HepG2 cells [3]): 0.68 and 0.77 and 0.59 and 0.72 and 0.70 and 0.76 | Phosphatidylcholine (C32:0) level vs controls (HepG2 cells [3]): 0.82 and 0.70 and 0.79 and 0.88 and 0.83 and 0.76 | Phosphatidylcholine (C34:1) level vs controls (HepG2 cells [3]): 0.83 and 0.75 and 0.78 and 0.82 and 0.74 | Phosphatidylcholine (C34:3) level vs controls (HepG2 cells [3]): 1.02 and 1.18 and 1.17 and 1.09 and 1.15 and 1.04 | Phosphatidylcholine (C36:1) level vs controls (HepG2 cells [3]): 0.86 and 0.88 and 0.73 and 0.84 and 0.79 and 0.90 | Phosphatidylcholine (C36:2) level vs controls (HepG2 cells [3]): 0.66 and 0.71 and 0.62 and 0.69 and 0.65 | Phosphatidylcholine (C36:3) level vs controls (HepG2 cells [3]): 0.90 and 1.03 and 0.84 and 0.96 and 0.97 and 0.89 | Phosphatidylcholine (C36:4) level vs controls (HepG2 cells [3]): 1.00 and 0.93 and 0.81 and 0.98 and 0.95 and 0.94 | Phosphatidylcholine (C36:5) level vs controls (HepG2 cells [3]): 0.78 and 0.81 and 0.63 and 0.76 and 0.72 and 0.75 | Phosphatidylethanolamine (C36:3) level vs controls (HepG2 cells [3]): 0.90 and 0.87 and 0.84 | Phosphatidylethanolamine (C38:3) level vs controls (HepG2 cells [3]): 0.72 and 0.70 and 0.64 and 0.75 and 0.68 and 0.66 | Phosphatidylethanolamine (C38:5) level vs controls (HepG2 cells [3]): 0.90 and 1.00 and 0.86 and 0.98 and 0.87 | Phosphatidylethanolamine (C38:6) level vs controls (HepG2 cells [3]): 0.92 and 0.91 and 0.95 and 1.01 and 0.98 | Phosphatidylethanolamine (C40:7) level vs controls (HepG2 cells [3]): 0.79 and 0.81 and 0.75 and 0.88 and 0.82 | Phosphocholine level vs controls (HepG2 cells [3]): 0.78 and 0.69 and 0.56 and 0.63 | Propionylcarnitine level vs controls (HepG2 cells [3]): 0.66 and 0.78 and 0.40 and 0.58 and 0.54 and 0.57 | S-Adenosylhomocysteine level vs controls (HepG2 cells [3]): 0.92 and 0.98 and 0.70 and 0.93 and 0.78 and 0.79 | Sphingomyelin (d32:2) level vs controls (HepG2 cells [3]): 0.49 and 0.71 and 0.69 and 0.75 and 0.59 and 0.78 | Sphingomyelin (d33:1) level vs controls (HepG2 cells [3]): 1.19 and 1.34 and 1.15 and 1.32 and 1.18 and 1.20 | Sphingomyelin (d34:0) level vs controls (HepG2 cells [3]): 0.96 and 1.09 and 1.25 and 1.15 and 1.11 | Sphingomyelin (d35:1) level vs controls (HepG2 cells [3]): 0.86 and 0.95 and 0.88 and 0.85 and 0.92 | Sphingomyelin (d36:1) level vs controls (HepG2 cells [3]): 0.86 and 0.96 and 0.90 and 0.82 and 0.84 | Sphingomyelin (d36:2) level vs controls (HepG2 cells [3]): 0.73 and 0.90 and 0.85 and 0.87 and 0.88 | Sphingomyelin (d37:1) level vs controls (HepG2 cells [3]): 0.70 and 0.80 and 0.79 and 0.76 | Sphingomyelin (d38:1) level vs controls (HepG2 cells [3]): 0.88 and 0.84 and 0.85 and 0.87 and 0.91 | Sphingomyelin (d38:2) level vs controls (HepG2 cells [3]): 0.61 and 0.66 and 0.64 and 0.67 and 0.71 | Sphingomyelin (d39:1) level vs controls (HepG2 cells [3]): 0.77 and 0.83 and 0.87 and 0.81 and 0.86 | Sphingomyelin (d40:2) level vs controls (HepG2 cells [3]): 0.73 and 0.83 and 0.81 and 0.87 and 0.78 and 0.84 | Sphingomyelin (d41:2) level vs controls (HepG2 cells [3]): 0.78 and 0.79 and 0.82 and 0.88 and 0.77 and 0.80 | Sphingomyelin (d42:2) level vs controls (HepG2 cells [3]): 0.86 and 0.95 and 0.81 and 0.98 and 0.89 and 0.91 | Taurine level vs controls (HepG2 cells [3]): 0.93 and 0.92 and 0.68 and 0.90 and 0.88 | Triacylglycerol (C34:1.C18:3) level vs controls (HepG2 cells [3]): 1.57 and 2.06 and 2.37 and 1.58 and 1.93 and 2.00 | Triacylglycerol (C34:2.C18:0) level vs controls (HepG2 cells [3]): 1.63 and 1.54 and 1.78 and 1.17 and 1.31 and 1.39 | Triacylglycerol (C34:2.C18:1) level vs controls (HepG2 cells [3]): 1.40 and 1.62 and 1.81 and 1.26 and 1.79 and 1.43 | Triacylglycerol (C36:4.C16:0) level vs controls (HepG2 cells [3]): 1.74 and 2.34 and 2.73 and 1.73 and 1.97 and 2.11 | Triacylglycerol (C36:4.C18:0) level vs controls (HepG2 cells [3]): 1.72 and 1.82 and 2.28 and 2.15 and 2.38 and 2.26
